Key:
[1] = target: T1, Gastrin/cholecystokinin type B receptor (Mus musculus, UniProt P56481); test: The compound was tested for its activity to inhibit the binding of [125I]CCK-8 to Cholecystokinin type B receptor in mouse brain at a pH of 6.5; type: tissue-based
T1 sequence (P56481 whole entry): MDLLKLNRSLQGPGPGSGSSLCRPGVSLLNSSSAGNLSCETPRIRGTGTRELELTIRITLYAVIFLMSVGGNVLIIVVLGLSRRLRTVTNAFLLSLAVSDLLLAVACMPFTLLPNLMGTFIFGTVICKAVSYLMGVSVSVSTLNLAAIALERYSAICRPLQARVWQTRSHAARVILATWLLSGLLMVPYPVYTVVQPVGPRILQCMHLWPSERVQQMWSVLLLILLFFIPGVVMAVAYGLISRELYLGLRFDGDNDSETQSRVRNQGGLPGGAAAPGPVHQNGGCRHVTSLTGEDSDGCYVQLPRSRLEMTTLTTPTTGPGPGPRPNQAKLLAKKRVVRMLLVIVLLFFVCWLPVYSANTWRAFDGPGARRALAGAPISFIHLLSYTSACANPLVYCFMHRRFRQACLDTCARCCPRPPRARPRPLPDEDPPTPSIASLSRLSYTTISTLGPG

[2] = target: T2, Cholecystokinin receptor type A (Rattus norvegicus, UniProt P30551); test: The compound was tested for its activity to inhibit the binding of [3H]-L-364,718 to Cholecystokinin type A receptor in rat pancreas
T2 sequence (P30551 whole entry): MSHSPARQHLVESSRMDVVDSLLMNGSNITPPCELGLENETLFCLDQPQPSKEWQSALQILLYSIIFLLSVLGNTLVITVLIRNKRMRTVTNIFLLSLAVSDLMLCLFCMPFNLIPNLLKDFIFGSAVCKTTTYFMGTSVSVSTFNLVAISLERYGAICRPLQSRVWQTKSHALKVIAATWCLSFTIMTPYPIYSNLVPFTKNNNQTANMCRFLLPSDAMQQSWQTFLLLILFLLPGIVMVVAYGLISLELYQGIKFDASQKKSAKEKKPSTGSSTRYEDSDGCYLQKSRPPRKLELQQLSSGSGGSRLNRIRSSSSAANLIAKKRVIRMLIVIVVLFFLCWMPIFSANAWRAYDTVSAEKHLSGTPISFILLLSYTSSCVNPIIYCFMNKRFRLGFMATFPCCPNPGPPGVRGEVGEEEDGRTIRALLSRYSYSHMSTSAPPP

[3] = target: T1, Gastrin/cholecystokinin type B receptor; test: The compound was tested for its activity to inhibit the binding of [125I]CCK-8 to Cholecystokinin type B receptor in mouse brain at a pH of 7.4; type: tissue-based
[4] = target: T2, Cholecystokinin receptor type A; test: The compound was tested for its activity to inhibit the binding of [125I]CCK-8 to Cholecystokinin type A receptor in rat pancreas

IC50 [1] [nM]	IC50 [2] [nM]	IC50 [3] [nM]	Structure (SMILES)	IC50 [4] [nM]
19	20500	–	O=C1NN(C(=O)Nc2ccc(Br)cc2)[C@@H](c2ccccc2)[C@@H]1c1ccccc1	–
–	42	880	O=C1NN(C(=S)Nc2ccc(Cl)c(C(F)(F)F)c2)C(c2ccccc2)C1c1ccccc1 (centres undefined)	–
–	17	1900	O=C1NN(C(=S)Nc2ccc(Cl)c(C(F)(F)F)c2)[C@H](c2ccccc2)[C@H]1c1ccccc1	–
–	–	–	CN1C(=O)[C@H](NC(=O)c2ccc(Cl)cc2)N=C(c2ccccc2)c2ccccc21	2.9
31	11600	–	O=C1NN(C(=O)Nc2ccc(Br)cc2)C(c2ccccc2)C1c1ccccc1 (centres undefined)	–
370	6400	–	O=C1NN(C(=O)Nc2ccc(Br)cc2)[C@H](c2ccccc2)[C@H]1c1ccccc1	–
–	–	–	CN1C(=O)[C@@H](NC(=O)c2ccc(Cl)cc2)N=C(c2ccccc2)c2ccccc21	0.39
–	810	550	O=C1NN(C(=S)Nc2ccc(Cl)c(C(F)(F)F)c2)[C@@H](c2ccccc2)[C@@H]1c1ccccc1	–

— ChEMBL document CHEMBL1153257, “Diphenylpyrazolidinone and benzodiazepine cholecystokinin antagonists: A case of convergent evolution in medicinal chemistry” (Bioorg Med Chem Lett, 1993)
